Patent US10624336B2, “In-vitro embryonic culture medium comprising an inhibitor of cathepsin L and the use of the same in embryo cryopreservation” (BEIJING UNIVERSITY OF AGRICULTURE, priority 2016, dated 2020)
“And” between values parts separate entries of the source, which are not always exact repeats. Identical values can stand only once. Marks after values point to notes of the source that are not given here.

Test system: normally hatched blastocysts from mice
Assay: Thawed recovery rate of normally hatched mouse blastocysts incubated with E-64d before programmed freezing
Type: cell-based
Conditions: for the thawed recovery rate (%): 2 h incubation before freezing, counted after 24-hour recovery, mean ± SD
Experimental: Female mice with pale pink vulvas were randomized and intraperitoneally injected with pregnant mare serum gonadotrophin (PMSG) at a dosage of 10 IU/mouse. After 48 hours, the female mice were further injected with human chorionic gonadotropin (hCG) at a dosage of 10 IU/mouse, and then were immediately housed in a cage with adult male mice at a ratio of 1:1 overnight for mating. The mice were checked for mating at 8 a.m. next day and injected with anti-PMSG (A-PMSG) at a dosage of 10 IU/mouse once the vaginal suppository was observed. The mice were sacrificed at 9 a.m. on Day 5 after the vaginal suppository was observed. The uteruses on both sides of the mice were removed and flushed with the PBS working solution to obtain normally hatched blastocysts.
The normally hatched blastocysts as obtained (about 100 blastocysts) were rinsed with 100 μl PBS solution for three times and then with 100 μl CZB working solution for another three times. Afterwards, the blastocysts were transferred into drops of the E-64d-CZB working solutions at 0, 0.5, 1, 1.5, 2, 3, 5, and 10 μmol/L, and then incubated in vitro in an incubator at 37° C., 5% CO2 in air, and 100% humidity for 2 hours.
The incubated embryos were washed twice with the PBS working solution, then subjected to PBS removal through a three-step process, and equilibrated for 5 min in a freezing solution (Bioniche, ViGRO™, ETHYLENE GLYCOL FREEZE (with Sucrose), Lot:150206-2P). Afterwards, the embryos were placed in 0.25 ml plastic straws. Then the straws containing the embryos were placed in a control rate freezer, cooled to −5° C. at a rate of 1° C./min, and then equilibrated for 10 min. During equilibration, the straws containing the embryos were clamped with pre-cooled forceps at the upper end for 3-5 seconds, thereby the freezing solution forming ice crystals, that is to say, ice seeding was completed. The straws containing the embryos were equilibrated for another 10 minutes, and then cooled down to −35° C. at a rate of 0.3° C./min. Subsequently, the frozen straws were placed in liquid nitrogen.
During thawing, the frozen straws were removed from the liquid nitrogen, gently shaken at room temperature for 5-10 seconds, placed in water at 35° C. for 10-15 seconds, and then removed from the water. The plugs at both ends of the straws were cut off, and then the embryos in the straws were placed in watch glasses, and subjected to the removal of the freezing solution through a three-step process. After recovery by thawing, the embryos were placed into drops of equilibrated fresh CZB for 24-hour recovery. After 24 hours, the thawed recovery rate was counted.
The three-step process for PBS removal as mentioned above was specifically as follows. Before the embryos were immersed in the freezing solution and then placed in straws for freezing, they were washed with 100 μl of the drops of the following mixed solutions sequentially (3-5 min for each mixed solution): the freezing solution ⅓+PBS ⅔, the freezing solution ½+PBS ½, and the freezing solution ⅔+PBS ⅓.
The three-step process for the removal of the freezing solution as mentioned above was specifically as follows. The embryos were washed with 100 μl of the drops of the following mixed solutions sequentially (3-5 min for each mixed solution): the freezing solution ⅔+PBS ⅓, the freezing solution ½+PBS ½, and the freezing solution ⅓+PBS ⅔.
All the experimental data was subjected to Chi-square analysis by SPSS 21.0 statistical software.

## CCOC(=O)[C@H]1O[C@@H]1C(=O)N[C@@H](CC(C)C)C(=O)NCCC(C)C [E-64d, ethyl (2S,3S)-3-[[(2S)-4-methyl-1-(3-methylbutylamino)-1-oxopentan-2-yl]carbamoyl]oxirane-2-carboxylate]
E-64d 0.5 μmol/L in CZB medium
  the thawed recovery rate (%): 75.35 ± 3.51^b %
E-64d 1 μmol/L in CZB medium
  the thawed recovery rate (%): 80.67 ± 5.40^Aa %
E-64d 1.5 μmol/L in CZB medium
  the thawed recovery rate (%): 79.45 ± 4.28^Aa %
E-64d 2 μmol/L in CZB medium
  the thawed recovery rate (%): 78.65 ± 2.56^b %
E-64d 3 μmol/L in CZB medium
  the thawed recovery rate (%): 76.26 ± 5.32^b %
E-64d 5 μmol/L
  thawed recovery rate compared with the control (in words): nearly comparable to that in absence of the inhibitor
E-64d 5 μmol/L in CZB medium
  the thawed recovery rate (%): 72.64 ± 2.13^B %
E-64d 10 μmol/L
  decrease of the thawed recovery rate as compared with the control: about 15%
E-64d 10 μmol/L in CZB medium
  the thawed recovery rate (%): 62.58% and 62.58 ± 3.72^B %
E-64d 0.5-3 μmol/L
  thawed recovery rate compared with the control (in words): improved to different extents as compared with the control
E-64d 1 or 1.5 μmol/L
  improvement of the thawed recovery rate as compared with the control: about 10%
